“And” between values parts separate entries of the source, which are not always exact repeats. Equal values may be shown once. Read-outs that look alike come from different tables or passages of the source.
Tests used:
[1] = Brain penetration (plasma and brain concentration, LC-MS/MS); type: in vivo, mice; details: for Kp at 1 h / concentration at 1 h: male, C57BL/6J, mouse; for Kp at 1 h: brain and plasma, read-out: Brain/Plasma concentration ratio; for concentration at 1 h: 1 h post-dosing
Procedure: Male C57BL/6J mice were used for both blood–brain penetration and plasma/tissue distribution studies, with mice assigned to three groups: 10 mg kg^−1 JX3212 (n = 3), 20 mg kg^−1 JX3212 (n = 3) for blood–brain penetration, and 10 mg kg^−1 JX3212 for plasma/tissue distribution (all administered via intraperitoneal injection), where mice in the blood–brain penetration groups were fasted for 12 h prior to drug administration and 2 h post‐administration; 1 h after drug administration, 0.2 mL of blood was collected from the retro‐orbital/orbital venous plexus into 1.5 mL heparinized tubes, centrifuged at 11 000 rpm for 5 min to obtain plasma (stored at −80 °C for blood–brain penetration groups), while whole brains were excised for blood–brain penetration groups and whole brains plus kidneys (rinsed with physiological saline, blotted dry on filter paper, and accurately weighed) for the plasma/tissue distribution group; plasma samples (20 µL) were mixed with 20 µL internal standard solution and 300 µL acetonitrile for protein precipitation, vortexed for 15 min, centrifuged at 3700 rpm for 15 min at 4 °C, and the supernatant was collected, whereas brain and kidney samples were homogenized in acetonitrile at 10× tissue weight (8000 rpm, 3 × 30 s), sonicated for 5 min, and processed identically to plasma samples; the concentrations of JX3212 in plasma and tissues were quantified by liquid chromatography–tandem mass spectrometry (LC−MS/MS), with lower limits of quantification set to 50 ng mL^−1 for plasma and 50 ng g^−1 for brain tissue.

[2] = biological target: T1, DAT (dopamine transporter) (Homo sapiens, UniProt Q01959); experiment: DAT functional assay (fluorescent neurotransmitter transporter uptake); type: cell-based; parameters: DAT inhibition, replicates: unit not given here
T1 construct: expressed in transfected cells
T1 sequence (Q01959 whole entry): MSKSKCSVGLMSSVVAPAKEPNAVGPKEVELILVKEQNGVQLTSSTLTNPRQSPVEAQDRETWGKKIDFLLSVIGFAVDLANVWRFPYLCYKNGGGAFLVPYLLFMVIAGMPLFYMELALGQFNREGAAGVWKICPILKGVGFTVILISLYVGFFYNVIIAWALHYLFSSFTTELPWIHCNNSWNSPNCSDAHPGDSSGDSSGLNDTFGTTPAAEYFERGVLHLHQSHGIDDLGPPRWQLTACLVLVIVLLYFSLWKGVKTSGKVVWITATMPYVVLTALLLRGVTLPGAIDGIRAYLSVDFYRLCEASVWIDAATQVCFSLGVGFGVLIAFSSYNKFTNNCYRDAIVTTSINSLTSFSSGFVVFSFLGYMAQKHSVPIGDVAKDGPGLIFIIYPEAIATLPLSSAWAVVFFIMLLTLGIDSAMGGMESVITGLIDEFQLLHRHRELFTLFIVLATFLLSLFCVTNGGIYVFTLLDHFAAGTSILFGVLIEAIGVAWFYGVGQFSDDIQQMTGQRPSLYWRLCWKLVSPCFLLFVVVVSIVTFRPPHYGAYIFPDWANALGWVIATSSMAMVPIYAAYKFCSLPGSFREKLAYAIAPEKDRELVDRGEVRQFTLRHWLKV
Procedure: The 5‐HTT/DAT functional assays were commissioned by Elsevier Science and Technology Co., Ltd. (Beijing). A fluorescence‐based neurotransmitter assay was conducted using a Neurotransmitter Transporter Uptake Assay Kit (Molecular Devices, R8174), according to the manufacturer's protocol. Flp‐in T‐rex 293 cells transiently expressing the human norepinephrine transporter and HEK293 cells stably expressing the human dopamine or serotonin transporters were seeded in PDL‐coated 384‐well plates and incubated overnight. Subsequently, the medium was removed, and the cells were treated with 16 µL of compounds diluted in assay buffer for 0.5 h at 37 °C. Centanafadine and 0.1% DMSO served as positive and negative controls, respectively. Then, 16 µL of dye mix prepared in 1× Hanks’ Balanced Salt Solution was added to each well and incubated at 37 °C for 1 h. Finally, the data point was acquired via a fluorescence plate reader with excitation at 450 nm and emission at 528 nm.

mice = experiment: Hippocampal inflammatory cytokines (IL-6, TNF-α) after 14-day administration; type: in vivo; parameters: IL-6 / TNF-α: unit not given here; details: for IL-6 / TNF-α: hippocampus, 14-day administration, individual animals
C57BL/6J mice after CSDS = experiment: CSDS model, forced swim test; type: in vivo; details: single i.p. injection 10 mg kg−1
Procedure: The 10‐day CSDS paradigm was conducted as previously described.^[ [24] ^] CD‐1 aggressive mice were singly housed in defeat cages on one side of a perforated plexiglass partition 24 h before the defeat session. Experimental C57BL/6J mice were placed daily on the resident cage side of a novel CD‐1 aggressor that rapidly initiated a physical attack on the intruder. After 10‐min of social defeat, the intruder mice were housed on the opposite side of the partition within a shared home cage, experiencing further sensory contact for the subsequent 24 h. In contrast, control mice were maintained in their home cages and allowed to explore the empty defeat cages for 10 min each day.
Mice were placed individually in a transparent glass cylinder (25 cm high, 10 cm wide) filled with water (temperature 23–25 °C) to a depth of 10 cm, and prevented from making contact with the bottom. Mice behaviors were videotaped from each side. The observation period lasted for 6 min, with the final 4 min used to measure immobile behavior, which was processed using the AnyMaze Tracking System (Stoelting).

[3] = mice, 10 mg/kg i.p., 1 h, 10 mg/kg
[4] = mice, 20 mg/kg i.p., 1 h, 20 mg/kg

For `c1ccc2c(c1)oc1ccc(Nc3ccnc(NCCCN4CCOCC4)n3)cc12` [JX3212, N^4-(dibenzo[b,d]furan-2-yl)-N^2-(3-morpholinopropyl)pyrimidine-2,4-diamine], the Kp at 1 h ([1]; ip, 10 mg/kg, mice, 10 mg/kg i.p., 1 h) was > 10, the Kp at 1 h ([1]; ip, 20 mg/kg, mice, 20 mg/kg i.p., 1 h) was 12.9 ± 1 and the concentration at 1 h ([1]; brain, intraperitoneal, 10 mg/kg, converted from 2533.3 ng/mL, read-out: brain concentration expressed as molar) was ~6.3 µM. The concentration at 1 h ([1]; brain, ip, 10 mg/kg, mice, 10 mg/kg i.p., read-out: Brain Calculated Concentration) was 2530 ± 745 ng/mL, the concentration at 1 h ([1]; brain, ip, 20 mg/kg, mice, 20 mg/kg i.p., read-out: Brain Calculated Concentration) was 6690 ± 816 ng/mL and the concentration at 1 h ([1]; plasma, ip, 10 mg/kg, mice, 10 mg/kg i.p., mean ± SD, read-out: Plasma Calculated Concentration) was 234 ± 14.4 ng/mL. The concentration at 1 h ([1]; plasma, ip, 20 mg/kg, mice, 20 mg/kg i.p., read-out: Plasma Calculated Concentration) was 521 ± 63.3 ng/mL, the Brain/Plasma concentration ratio [1, 3] was 10.72 and the “logBB (blood–brain partitioning coefficient)” value [1, 3] was 1.02 ± 0.10 and > 1 and 1.02. For the same compound, the Brain/Plasma concentration ratio [1, 4] was > 10, the logBB [1, 4] was 1.11 ± 0.03 and > 1 and the IC50 [2] was 5.2 µM. The “DAT inhibition, replicates” value ([2]; concentration 3) was -3.23 and -17.79, the “DAT inhibition, replicates” value ([2]; concentration 10) was -5 and -8.74 and the “DAT inhibition, replicates” value ([2]; concentration 30) was 1.89 and -0.08. For the same compound, the “DAT inhibition, replicates” value ([2]; concentration 100) was -1.46 and -1.85, the “DAT inhibition, replicates” value ([2]; concentration 300) was -3.23 and -0.87 and the “DAT inhibition, replicates” value ([2]; concentration 1000) was 32. The “DAT inhibition, replicates” value ([2]; concentration 3000) was 70.17 and 28.06, the “DAT inhibition, replicates” value ([2]; concentration 10000) was 80.01 and 56.79 and the “DAT inhibition, replicates” value ([2]; concentration 30000) was 99.88 and 90.83. The “DAT inhibition, replicates” value ([2]; concentration 100000 (unit not given)) was 110.9 and 109.92, the “hippocampal interleukin-6 level (in words)” value (mice; 3/10 mg kg−1 for 14 days) was “did not elevate” and the “hippocampal tumor necrosis factor-alpha level (in words)” value (mice; 3/10 mg kg−1 for 14 days) was “did not elevate”. The IL-6 (mice; 3 mg/kg) was 45.0571 and 32.8331 and 24.8073 and 32.2935 and 22.1265 and 25.6335 and 36.1041 and 30.8941 and 28.8202 and 44.6187 and 40.1844 and 35.7837 and 22.7841 and 20.9462 and 42.3088, the TNF-α (mice; 3 mg/kg) was 465.065 and 545.129 and 550.438 and 437.245 and 389.037 and 473.135 and 223.18 and 189.621 and 460.606 and 247.598 and 569.127 and 488.638 and 325.113 and 294.957 and the IL-6 (mice; 10 mg/kg) was 35.0924 and 32.8836 and 20.727 and 32.5464 and 25.9876 and 35.1767 and 33.4906 and 33.3389 and 29.4778 and 46.0519 and 38.6332 and 35.1936 and 20.9968 and 23.4416 and 42.3425. The TNF-α (mice; 10 mg/kg) was 489.276 and 552.137 and 604.805 and 420.68 and 480.356 and 484.816 and 216.59 and 243.988 and 478.02 and 253.544 and 531.962 and 451.261 and 319.804 and 494.16 and the “CSDS: immobility in FST (in words)” value (C57BL/6J mice after CSDS) was “reduced immobility duration”.

From publication PMC12903969, “Discovery of a Novel and Potent Kir4.1 Inhibitor as a Safe and Rapid‐Onset Antidepressant Agent in Mice” (Advanced Science, 2025)
